Assay results as given in patent US12637428B2, “Isoquinoline derivatives as SIK2 inhibitors” (Cancer Research Technology Limited, priority 2019, dated 2026).

Tests used:
Assay type in all cases: biochemical
[1] = target: T1, SIK2 (Homo sapiens, UniProt Q9H0K1); experiment: SIK2 kinase assay, IMAP fluorescence polarization; conditions: 50 or 100 μM ATP, average
T1 construct: purchased Life Technologies
Description: (§1) SIK2, SIK1, SIK3, Abl, Src and EPHA2 Kinase Assays
(§2) SIK2, SIK1, SIK3, Abl, Src and EPHA2 assays were performed using an IMAP fluorescence polarization assay format (Molecular Devices Inc.). 0.6-13 nM of each kinase (Life Technologies) was incubated for 60 min at room temperature with 100 nM of either FAM-Abltide, FAM-Srctide or FAM-HDAC protein derived peptide (synthesized by Alta Biosciences, Birmingham UK). Assays were carried out in the presence of 50 or 100 μM ATP in either 20 mM Tris buffer (pH 7.2) containing 4 mM MgCl2, 0.2% BSA and 2 mM DTT (SIK2, SIK1, SIK3, Abl, Src); or 20 mM Tris buffer (pH 8.5) containing 20 mM MgCl2, 0.5% BSA, 0.2% Triton and 5 mM DTT (EPHA2). Typically, dose response analyses were performed over concentration ranges from 0.00005-1 μM. Reactions were stopped by adding 2 assay volumes of 0.25% (v/v) IMAP binding reagent in either an 85:15 ratio (SIK2, SIK1, SIK3, Abl, EPHA2) or 30:70 ratio (Src) of IMAP binding buffers A and B (Molecular Devices). After incubation to allow the detection reagents to bind to the phosphorylated peptide, fluorescence polarization was measured on a Tecan Infinite plate reader at excitation (470 nm) and emission (530 nm) wavelengths. Inhibition was calculated using no inhibitor and no enzyme controls as 0 and 100% inhibition, respectively.
(§3) Table 3 provides details of the inhibitory constant (nM) of compounds of the invention at SIK1, SIK2 and SIK3 and other kinases.

[2] = target: T2, SIK1 (Homo sapiens, UniProt P57059); experiment: SIK1 kinase assay, IMAP fluorescence polarization; conditions: 50 or 100 μM ATP, average
T2 construct: purchased Life Technologies
Description: as §1, §2, §3

[3] = target: T3, SIK3 (Homo sapiens, UniProt Q9Y2K2); experiment: SIK3 kinase assay, IMAP fluorescence polarization; conditions: 50 or 100 μM ATP, average
T3 construct: purchased Life Technologies
Description: as §1, §2, §3

[4] = target: T4, Abl (Homo sapiens, UniProt P00519); experiment: Abl kinase assay, IMAP fluorescence polarization; conditions: 50 or 100 μM ATP, average
T4 construct: purchased Life Technologies
Description: as §1, §2, §3

[5] = target: T5, Src (Homo sapiens, UniProt P12931); experiment: Src kinase assay, IMAP fluorescence polarization; conditions: 50 or 100 μM ATP, average
T5 construct: purchased Life Technologies
Description: as §1, §2, §3

[6] = target: T6, EPHA2 (Homo sapiens, UniProt P29317); experiment: EPHA2 kinase assay, IMAP fluorescence polarization; conditions: 50 or 100 μM ATP, Tris pH 8.5, average
T6 construct: purchased Life Technologies
Description: as §1, §2, §3

T2 sequence (P57059 whole entry): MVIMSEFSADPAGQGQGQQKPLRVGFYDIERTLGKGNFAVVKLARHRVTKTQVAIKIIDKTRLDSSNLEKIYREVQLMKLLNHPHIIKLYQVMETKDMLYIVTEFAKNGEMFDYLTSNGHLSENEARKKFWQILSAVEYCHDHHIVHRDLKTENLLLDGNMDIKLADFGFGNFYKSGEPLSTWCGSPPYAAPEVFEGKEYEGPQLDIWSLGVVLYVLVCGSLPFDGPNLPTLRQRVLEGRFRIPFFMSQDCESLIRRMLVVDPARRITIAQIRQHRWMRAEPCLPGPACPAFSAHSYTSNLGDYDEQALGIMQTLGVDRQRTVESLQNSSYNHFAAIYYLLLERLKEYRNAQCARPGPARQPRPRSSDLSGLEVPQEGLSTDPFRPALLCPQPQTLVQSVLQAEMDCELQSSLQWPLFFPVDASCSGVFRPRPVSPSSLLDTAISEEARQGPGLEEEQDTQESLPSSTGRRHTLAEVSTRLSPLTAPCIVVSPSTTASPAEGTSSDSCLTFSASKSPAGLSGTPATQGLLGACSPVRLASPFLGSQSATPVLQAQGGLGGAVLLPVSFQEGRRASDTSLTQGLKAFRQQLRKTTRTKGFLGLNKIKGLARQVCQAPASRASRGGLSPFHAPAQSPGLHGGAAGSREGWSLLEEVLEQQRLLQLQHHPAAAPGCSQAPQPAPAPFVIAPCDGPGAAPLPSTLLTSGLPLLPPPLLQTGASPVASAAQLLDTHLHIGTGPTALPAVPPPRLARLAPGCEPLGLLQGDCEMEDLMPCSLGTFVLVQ
T4 sequence (P00519 whole entry): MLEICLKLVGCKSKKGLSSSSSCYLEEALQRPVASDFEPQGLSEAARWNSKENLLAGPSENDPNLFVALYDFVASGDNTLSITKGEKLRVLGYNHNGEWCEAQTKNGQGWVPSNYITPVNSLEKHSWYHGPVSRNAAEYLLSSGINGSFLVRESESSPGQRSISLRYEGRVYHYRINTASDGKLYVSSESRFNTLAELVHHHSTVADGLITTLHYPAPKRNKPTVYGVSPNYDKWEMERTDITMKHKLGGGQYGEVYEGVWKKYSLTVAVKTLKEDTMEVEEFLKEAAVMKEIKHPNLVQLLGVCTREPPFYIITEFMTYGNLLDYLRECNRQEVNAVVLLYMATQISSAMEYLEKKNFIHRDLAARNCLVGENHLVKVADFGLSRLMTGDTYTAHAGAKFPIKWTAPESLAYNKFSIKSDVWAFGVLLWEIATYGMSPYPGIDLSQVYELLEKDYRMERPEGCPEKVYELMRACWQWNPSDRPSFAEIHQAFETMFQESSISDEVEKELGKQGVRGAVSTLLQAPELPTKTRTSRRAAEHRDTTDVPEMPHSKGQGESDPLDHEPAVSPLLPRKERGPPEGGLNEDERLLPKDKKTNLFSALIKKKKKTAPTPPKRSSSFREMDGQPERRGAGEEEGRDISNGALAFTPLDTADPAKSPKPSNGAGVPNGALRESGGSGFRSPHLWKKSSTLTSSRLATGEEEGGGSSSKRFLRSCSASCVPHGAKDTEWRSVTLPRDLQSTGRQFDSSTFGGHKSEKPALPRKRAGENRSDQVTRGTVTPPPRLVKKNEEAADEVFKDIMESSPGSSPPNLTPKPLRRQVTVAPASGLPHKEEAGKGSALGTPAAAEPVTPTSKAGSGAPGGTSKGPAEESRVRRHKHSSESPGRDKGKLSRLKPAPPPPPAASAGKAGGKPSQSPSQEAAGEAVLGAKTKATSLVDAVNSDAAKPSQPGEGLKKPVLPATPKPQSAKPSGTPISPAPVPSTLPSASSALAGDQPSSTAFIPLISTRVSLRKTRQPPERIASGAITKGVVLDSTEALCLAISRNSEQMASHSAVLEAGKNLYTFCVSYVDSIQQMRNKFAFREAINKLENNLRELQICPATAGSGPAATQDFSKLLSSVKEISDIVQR
T6 sequence (P29317 24-976): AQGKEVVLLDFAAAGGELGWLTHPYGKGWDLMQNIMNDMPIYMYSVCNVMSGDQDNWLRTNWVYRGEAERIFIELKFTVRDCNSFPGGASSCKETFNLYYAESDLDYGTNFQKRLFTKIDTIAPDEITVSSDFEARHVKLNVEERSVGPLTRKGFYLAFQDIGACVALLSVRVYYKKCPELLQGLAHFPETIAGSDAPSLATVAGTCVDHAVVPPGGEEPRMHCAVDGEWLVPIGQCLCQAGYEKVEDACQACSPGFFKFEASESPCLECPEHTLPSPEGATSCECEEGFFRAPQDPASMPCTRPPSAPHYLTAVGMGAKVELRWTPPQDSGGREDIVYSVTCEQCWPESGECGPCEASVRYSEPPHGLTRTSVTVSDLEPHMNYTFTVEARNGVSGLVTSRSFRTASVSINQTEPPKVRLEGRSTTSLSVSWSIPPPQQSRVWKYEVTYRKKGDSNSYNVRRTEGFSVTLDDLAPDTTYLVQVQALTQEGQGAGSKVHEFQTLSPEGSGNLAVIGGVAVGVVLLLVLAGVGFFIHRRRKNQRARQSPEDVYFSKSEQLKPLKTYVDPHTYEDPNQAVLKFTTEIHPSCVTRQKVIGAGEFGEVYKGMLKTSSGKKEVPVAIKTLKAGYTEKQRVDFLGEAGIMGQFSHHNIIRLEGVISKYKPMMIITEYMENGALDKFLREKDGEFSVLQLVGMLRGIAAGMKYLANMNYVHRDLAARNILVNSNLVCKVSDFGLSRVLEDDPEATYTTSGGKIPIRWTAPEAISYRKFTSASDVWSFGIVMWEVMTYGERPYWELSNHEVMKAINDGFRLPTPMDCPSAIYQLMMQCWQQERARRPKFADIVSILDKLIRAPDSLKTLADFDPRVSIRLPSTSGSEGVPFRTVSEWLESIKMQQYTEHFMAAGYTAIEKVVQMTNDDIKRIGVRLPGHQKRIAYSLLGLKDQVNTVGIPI
T1 sequence (Q9H0K1 whole entry): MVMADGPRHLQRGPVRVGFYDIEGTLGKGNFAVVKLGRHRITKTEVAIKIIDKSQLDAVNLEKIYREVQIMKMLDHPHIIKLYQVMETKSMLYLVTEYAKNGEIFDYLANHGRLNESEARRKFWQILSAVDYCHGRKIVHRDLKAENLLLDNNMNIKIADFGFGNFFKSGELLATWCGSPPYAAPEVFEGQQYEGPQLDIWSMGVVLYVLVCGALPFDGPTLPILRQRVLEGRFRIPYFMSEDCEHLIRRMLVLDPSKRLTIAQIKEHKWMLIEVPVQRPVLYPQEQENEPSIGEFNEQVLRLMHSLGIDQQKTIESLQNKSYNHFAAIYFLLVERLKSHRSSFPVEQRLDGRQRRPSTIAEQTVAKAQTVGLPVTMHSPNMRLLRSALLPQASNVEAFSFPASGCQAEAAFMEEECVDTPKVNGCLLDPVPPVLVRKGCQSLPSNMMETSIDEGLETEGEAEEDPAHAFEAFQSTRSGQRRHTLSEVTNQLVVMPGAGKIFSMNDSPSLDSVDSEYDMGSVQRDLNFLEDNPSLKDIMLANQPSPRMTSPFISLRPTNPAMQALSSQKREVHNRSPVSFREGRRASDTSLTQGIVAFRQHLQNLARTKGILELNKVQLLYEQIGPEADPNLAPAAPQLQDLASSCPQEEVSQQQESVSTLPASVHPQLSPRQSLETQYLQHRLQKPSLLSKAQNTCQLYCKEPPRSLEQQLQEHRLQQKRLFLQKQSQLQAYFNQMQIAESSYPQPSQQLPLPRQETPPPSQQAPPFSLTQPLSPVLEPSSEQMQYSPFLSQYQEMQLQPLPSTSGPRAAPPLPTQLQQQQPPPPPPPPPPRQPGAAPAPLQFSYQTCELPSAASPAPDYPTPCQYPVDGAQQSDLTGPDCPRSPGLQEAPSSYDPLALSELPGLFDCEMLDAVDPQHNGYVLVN
T5 sequence (P12931 whole entry): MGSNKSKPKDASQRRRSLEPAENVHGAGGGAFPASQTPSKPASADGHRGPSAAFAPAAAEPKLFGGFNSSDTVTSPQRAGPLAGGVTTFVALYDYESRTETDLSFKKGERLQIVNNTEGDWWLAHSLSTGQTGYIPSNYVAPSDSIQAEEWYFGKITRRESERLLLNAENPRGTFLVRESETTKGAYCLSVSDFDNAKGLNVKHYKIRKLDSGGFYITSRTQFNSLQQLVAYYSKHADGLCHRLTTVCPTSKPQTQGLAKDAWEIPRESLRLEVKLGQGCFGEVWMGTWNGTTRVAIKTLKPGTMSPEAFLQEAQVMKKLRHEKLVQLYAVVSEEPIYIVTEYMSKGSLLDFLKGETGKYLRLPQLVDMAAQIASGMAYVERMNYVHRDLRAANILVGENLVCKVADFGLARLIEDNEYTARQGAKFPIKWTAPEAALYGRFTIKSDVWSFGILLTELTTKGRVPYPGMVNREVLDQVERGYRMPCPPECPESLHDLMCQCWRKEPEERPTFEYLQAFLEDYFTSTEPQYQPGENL

Row | SMILES | Ki [1] | Ki [2] | Ki [3] | Ki [4] | Ki [5] | Ki [6]
1 | Cc1cccc(F)c1-c1cc(NC2CCNCC2)c2cc(N)ncc2c1 [Example 1, 7-(2-Fluoro-6-methyl-phenyl)-N5-(4-piperidyl)isoquinoline-3,5-diamine] | 0.0518 nM | 0.364 nM | 0.352 nM | 16.3 nM | 153 nM | 122 nM
2 | Cc1cccc(F)c1-c1cc(NC[C@H]2CCCNC2)c2cc(N)ncc2c1 [Example 2, 7-(2-fluoro-6-methyl-phenyl)-N5-[[(3S)-3-piperidyl]methyl]isoquinoline-3,5-diamine] | 0.18 nM | 0.524 nM | 1.37 nM | 11.1 nM | 157 nM | 64.6 nM
3 | Cc1cccc(F)c1-c1cc(NC2CNC2)c2cc(N)ncc2c1 [Example 3, N5-(azetidin-3-yl)-7-(2-fluoro-6-methyl-phenyl)isoquinoline-3,5-diamine] | 0.143 nM | 0.808 nM | 0.643 nM | 20.4 nM | 330 nM | 878 nM
4 | Cc1cccc(F)c1-c1cc(N[C@@H]2CCNC2)c2cc(N)ncc2c1 [Example 4, 7-(2-fluoro-6-methyl-pheny)-N5-[(3R)-pyrrolidin-3-yl]isoquinoline-3,5-diamine] | 0.0703 nM | 0.354 nM | 0.231 nM | 7.79 nM | 138 nM | 644 nM
5 | Nc1cc2c(NC3CCNCC3)cc(-c3c(F)cccc3Cl)cc2cn1 [Example 20, 7-(2-chloro-6-fluoro-phenyl)-N5-(4-piperidyl)isoquinoline-3,5-diamine] | 26.1 nM |  |  |  |  | 
6 | Cc1cccc(F)c1-c1ccc2c(C(=O)NC3CNC3)c(N)ncc2c1 [Example 32, 3-Amino-N-(azetidin-3-yl)-7-(2-fluoro-6-methyl-phenyl)isoquinoline-4-carboxamide] | 27.3 nM |  |  | 487 nM | 723 nM | 
7 | Cc1cccc(F)c1-c1ccc2c(C(=O)NCC3CNC3)c(N)ncc2c1 [Example 33, 3-amino-N-(azetidin-3-ylmethyl)-7-(2-fluoro-6-methyl-phenyl)isoquinoline-4-carboxamide] | 11.8 nM |  |  |  |  | 
8 | Cc1cccc(F)c1-c1ccc2c(C(=O)NCC3CCNCC3)c(N)ncc2c1 [Example 34, 3-amino-7-(2-fluoro-6-methyl-phenyl)-N-(4-piperidylmethyl)isoquinoline-4-carboxamide] | 41.5 nM |  |  |  |  | 
9 | Cc1cccc(F)c1-c1ccc2c(C(=O)NC3CCNCC3)c(N)ncc2c1 [Example 35, 3-amino-7-(2-fluoro-6-methyl-phenyl)-N-(4-piperidyl)isoquinoline-4-carboxamide] | 11.4 nM |  |  | 446 nM | 564 nM | 
10 | Cc1cccc(F)c1-c1ccc2c(C(=O)N[C@@H]3CCNC3)c(N)ncc2c1 [Example 36, 3-amino-7-(2-fluoro-6-methyl-phenyl)-N-[(3R)-pyrrolidin-3-yl]isoquinoline-4-carboxamide] | 18.2 nM |  |  |  |  | 
11 | Cc1cccc(F)c1-c1ccc2c(C(=O)N[C@H]3CCNC3)c(N)ncc2c1 [Example 37, 3-amino-7-(2-fluoro-6-methyl-phenyl)-N-[(3S)-pyrrolidin-3-yl]isoquinoline-4-carboxamide] | 7.74 nM |  |  |  |  | 
12 | Cc1cccc(Cl)c1-c1ccc2c(C(=O)NC3CNC3)c(N)ncc2c1 [Example 38, 3-amino-N-(azetidin-3-yl)-7-(2-chloro-6-methyl-phenyl)isoquinoline-4-carboxamide] | 11.3 nM |  |  | 88.5 nM | 137 nM | 764 nM
13 | Cc1cccc(Cl)c1-c1ccc2c(C(=O)NCC3CNC3)c(N)ncc2c1 [Example 39, 3-amino-N-(azetidin-3-ylmethyl)-7-(2-chloro-6-methyl-phenyl)isoquinoline-4-carboxamide] | 19.6 nM |  |  |  |  | 
14 | Cc1cccc(Cl)c1-c1ccc2c(C(=O)NCC3CCNCC3)c(N)ncc2c1 [Example 40, 3-amino-7-(2-chloro-6-methyl-phenyl)-N-(4-piperidylmethyl)isoquinoline-4-carboxamide] | 39.5 nM |  |  |  |  | 
15 | Cc1cccc(Cl)c1-c1ccc2c(C(=O)NC3CCNCC3)c(N)ncc2c1 [Example 41, 3-amino-7-(2-chloro-6-methyl-phenyl)-N-(4-piperidyl)isoquinoline-4-carboxamide] | 3.75 nM | 6.07 nM | 61.7 nM | 190 nM | 58.4 nM | 
16 | Cc1cccc(Cl)c1-c1ccc2c(C(=O)N[C@H]3CCNC3)c(N)ncc2c1 [Example 43, 3-amino-7-(2-chloro-6-methyl-phenyl)-N-[(3S)-pyrrolidin-3-yl]isoquinoline-4-carboxamide] | 6.54 nM |  |  | 345 nM | 136 nM | 
17 | CN1CCC(Nc2cc(-c3c(F)cccc3Cl)cc3cnc(N)cc23)CC1 [Example 64, 7-(2-Chloro-6-fluoro-phenyl)-N5-(1-methyl-4-piperidyl)isoquinoline-3,5-diamine] | 11.7 nM |  |  | > 10000 nM | 2420 nM | 
18 | Cc1cccc(F)c1-c1cc(N2CC[C@@H](CN(C)C)C2)c2cc(N)ncc2c1 [Example 81, 5-[(3S)-3-[(dimethylamino)methyl]pyrrolidin-1-yl]-7-(2-fluoro-6-methyl-phenyl) isoquinolin-3-amine] | 7.68 nM |  |  | 296 nM | 1350 nM | 
19 | Cc1cccc(F)c1-c1ccc2c(C(=O)NC3CCN(C)CC3)c(N)ncc2c1 [Example 87, 3-Amino-7-(2-fluoro-6-methyl-phenyl)-N-(1-methyl-4-piperidyl)isoquinoline-4-carboxamide] | 9.99 nM |  |  | 667 nM | 574 nM | 
20 | Cc1cccc(F)c1-c1ccc2c(C(=O)NCC3CN(C)C3)c(N)ncc2c1 [Example 90, 3-amino-7-(2-fluoro-6-methyl-phenyl)-N-[(1-methylazetidin-3-yl)methyl]isoquinoline-4-carboxamide] | 32.3 nM |  |  |  |  | 
21 | Cc1cccc(F)c1-c1ccc2c(C(=O)NCC3CCN(C)CC3)c(N)ncc2c1 [Example 91, 3-amino-7-(2-fluoro-6-methyl-phenyl)-N-[(1-methyl-4-piperidyl)methyl] isoquinoline-4-carboxamide] | 47.6 nM |  |  |  |  | 
22 | Cc1cccc(F)c1-c1ccc2c(C(=O)N[C@@H]3CCN(C)C3)c(N)ncc2c1 [Example 92, 3-amino-7-(2-fluoro-6-methyl-phenyl)-N-[(3R)-1-methylpyrrolidin-3-yl]isoquinoline-4-carboxamide] | 16.8 nM |  |  |  |  | 
23 | Cc1cccc(F)c1-c1ccc2c(C(=O)N[C@H]3CCN(C)C3)c(N)ncc2c1 [Example 93, 3-amino-7-(2-fluoro-6-methyl-phenyl)-N-[(3S)-1-methylpyrrolidin-3-yl]isoquinoline-4-carboxamide] | 26.8 nM |  |  |  |  | 
24 | Cc1cccc(Cl)c1-c1ccc2c(C(=O)NC3CN(C)C3)c(N)ncc2c1 [Example 94, 3-amino-7-(2-chloro-6-methyl-phenyl)-N-(1-methylazetidin-3-yl)isoquinoline-4-carboxamide] | 14.4 nM |  |  |  |  | 
25 | Cc1cccc(Cl)c1-c1ccc2c(C(=O)NCC3CN(C)C3)c(N)ncc2c1 [Example 95, 3-amino-7-(2-chloro-6-methyl-phenyl)-N-[(1-methylazetidin-3-yl)methyl]isoquinoline-4-carboxamide] | 31.6 nM |  |  |  |  | 
26 | Cc1cccc(Cl)c1-c1ccc2c(C(=O)NCC3CCN(C)CC3)c(N)ncc2c1 [Example 96, 3-amino-7-(2-chloro-6-methyl-phenyl)-N-[(1-methyl-4-piperidyl)methyl] isoquinoline-4-carboxamide] | 54.5 nM |  |  |  |  | 
27 | Cc1cccc(Cl)c1-c1ccc2c(C(=O)N[C@@H]3CCN(C)C3)c(N)ncc2c1 [Example 97, 3-amino-7-(2-chloro-6-methyl-phenyl)-N-[(3R)-1-methylpyrrolidin-3-yl]isoquinoline-4-carboxamide] | 13 nM |  |  |  |  | 
28 | Cc1cccc(Cl)c1-c1ccc2c(C(=O)N[C@H]3CCN(C)C3)c(N)ncc2c1 [Example 98, 3-amino-7-(2-chloro-6-methyl-phenyl)-N-[(3S)-1-methylpyrrolidin-3-yl]isoquinoline-4-carboxamide] | 12.8 nM |  |  | 481 nM | 317 nM | 
29 | Cc1cccc(F)c1-c1cc(N2CC[C@H](O)C2)c2cc(N)ncc2c1 [Example 105, (3S)-1-[3-amino-7-(2-fluoro-6-methyl-phenyl)-5-isoquinolyl]pyrrolidin-3-ol] | 38.1 nM |  |  | 169 nM | > 10000 nM | 
30 | Cc1cccc(F)c1-c1cc(NC2CCCCC2)c2cc(N)ncc2c1 [Example 111, N5-cyclohexyl-7-(2-fluoro-6-methyl-phenyl)isoquinoline-3,5-diamine] | 83.5 nM |  |  |  |  | 
